Measured values as given in ChEMBL document CHEMBL1201862, “PubChem BioAssay data set” (2004).
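How tested: cells in 96-well plates exposed to compound for 48 hours at five concentrations. Abbreviation: GI50, concentration required for 50% inhibition of growth.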 Calls of active or inactive are those of the source. No stated cut-off is given here; in the data, active = GI50 up to about 1.1 µM and inactive = higher.

Experiments:
Assay in all cases: NCI-60 cell line screen, 48 h
MDA-MB-435 = tested on: MDA-MB-435
COLO 205 = tested on: COLO 205
SF-268 = tested on: SF-268
UO-31 = tested on: UO-31
PC-3 = tested on: PC-3
OVCAR-8 = tested on: OVCAR-8
NCI-H460 = tested on: NCI-H460
SW-620 = tested on: SW-620
U-251 = tested on: U-251
HT-29 = tested on: HT-29
SF-539 = tested on: SF-539
IGROV-1 = tested on: IGROV-1
OVCAR-5 = tested on: OVCAR-5
HCC 2998 = tested on: HCC 2998
TK-10 = tested on: TK-10
SN12C = tested on: SN12C
UACC-257 = tested on: UACC-257
SK-MEL-28 = tested on: SK-MEL-28
Malme-3M = tested on: Malme-3M
LOX IMVI = tested on: LOX IMVI

Measured: GI50

COc1ccc(NC/C=C/C(=C/COC(C)=O)OC(C)=O)cc1
inactive: MDA-MB-435 1.73 µM | COLO 205 1.88 µM | SF-268 2.52 µM | UO-31 12.3 µM | PC-3 2.28 µM | OVCAR-8 4.23 µM | NCI-H460 2.08 µM | SW-620 1.69 µM | U-251 2.44 µM | HT-29 2.19 µM | SF-539 2 µM | IGROV-1 1.8 µM | OVCAR-5 1.75 µM | HCC 2998 3.03 µM | TK-10 1.87 µM | SN12C 2.12 µM | UACC-257 2.24 µM | SK-MEL-28 1.87 µM | Malme-3M 2.34 µM | LOX IMVI 2.13 µM

COc1cc(S(=O)(=O)Nc2nc(-c3ccc(/N=C/c4cccs4)cc3)cs2)ccc1Cl
inactive: MDA-MB-435 > 100 µM | COLO 205 > 100 µM | SF-268 56.6 µM | UO-31 58.6 µM | PC-3 76.2 µM | OVCAR-8 40.7 µM | NCI-H460 > 100 µM | SW-620 35.5 µM | U-251 81.1 µM | HT-29 > 100 µM | SF-539 34 µM | IGROV-1 33.7 µM | OVCAR-5 > 100 µM | HCC 2998 > 100 µM | TK-10 > 100 µM | SN12C 28.8 µM | UACC-257 > 100 µM | SK-MEL-28 > 100 µM | Malme-3M > 100 µM | LOX IMVI 31 µM

CCCCCCNC(=O)c1cc(NCc2cc(OC)ccc2OC)ccc1O
inactive: MDA-MB-435 18.9 µM | COLO 205 19 µM | SF-268 13.3 µM | UO-31 17.7 µM | PC-3 20.2 µM | OVCAR-8 20.7 µM | NCI-H460 24.7 µM | SW-620 30.7 µM | U-251 17.9 µM | HT-29 31.3 µM | SF-539 18.5 µM | IGROV-1 21.3 µM | OVCAR-5 51.4 µM | HCC 2998 26.6 µM | TK-10 42.6 µM | SN12C 20.6 µM | UACC-257 16.9 µM | SK-MEL-28 31.8 µM | Malme-3M 22.5 µM | LOX IMVI 16.6 µM

c1csc(-c2cscc2-c2ccsc2)c1
inactive: MDA-MB-435 25.5 µM | COLO 205 > 100 µM | SF-268 75 µM | UO-31 > 70.8 µM | PC-3 > 43.8 µM | OVCAR-8 98.2 µM | NCI-H460 62.2 µM | SW-620 62.2 µM | U-251 > 100 µM | HT-29 > 84.9 µM | SF-539 > 53.2 µM | IGROV-1 68.9 µM | OVCAR-5 > 69.2 µM | HCC 2998 28.4 µM | TK-10 > 100 µM | SN12C > 86.1 µM | UACC-257 > 94.4 µM | SK-MEL-28 > 100 µM | Malme-3M 20.9 µM | LOX IMVI 41.1 µM

N=C(N)SCc1cccc2c(=O)cc(-c3ccccc3)oc12
inactive: MDA-MB-435 8.02 µM | COLO 205 3.78 µM | SF-268 12.4 µM | UO-31 2.84 µM | PC-3 4.54 µM | OVCAR-8 4.5 µM | NCI-H460 4.72 µM | SW-620 4.37 µM | U-251 7.66 µM | HT-29 4.84 µM | SF-539 7.26 µM | IGROV-1 6.32 µM | OVCAR-5 16.5 µM | HCC 2998 12 µM | TK-10 7.57 µM | SN12C 6.19 µM | UACC-257 10.9 µM | SK-MEL-28 4.43 µM | Malme-3M 10.8 µM | LOX IMVI 12.2 µM
